Data: patent publication US20090105301A1, “9A-SUBSTITUTED AZALIDES FOR THE TREATMENT OF MALARIA” (priority 2006, published 2009)
Values after ≈ are worked out from the molar mass of the structure shown. Structures can show the parent of a compound that is named as a salt.

Assays:
Format in all cases: cell-based, Plasmodium falciparum
[1] = tested on: P. falciparum TM91C235; assay: In vitro screening protocol I, [3H]-hypoxanthine incorporation, TM91C235; conditions: Plasmodium falciparum, In vitro screening protocol I; P. falciparum TM91C235; read-out: IC50 TM91C235
[2] = tested on: P. falciparum W2 (CDC/Indochina III, W-2); assay: In vitro screening protocol I, [3H]-hypoxanthine incorporation, W2; conditions: Plasmodium falciparum; In vitro screening protocol I; P. falciparum W2; read-out: IC50 W2
Method in brief: (§1)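 Asexual blood-stage P. falciparum was cultured in human A+ erythrocytes at 37 °C under 5% CO2/5% O2, and growth was measured by [3H]-hypoxanthine incorporation over 72 h total. TM91C235 was prescreened at 25,000, 2,500 and 25 ng/ml in folate-free medium. D-6 and W-2 IC50s came from 11-point two-fold dilutions by logistic fit.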

[3] = tested on: P. falciparum D6 (CDC/Sierra Leone I, D-6); assay: In vitro screening protocol I, [3H]-hypoxanthine incorporation, D6; conditions: Plasmodium falciparum; In vitro screening protocol I; P. falciparum D6; read-out: IC50 D6
Method in brief: as §1

IC50 [1] [µg/mL] | IC50 [2] [µg/mL] | IC50 [3] [µg/mL] | Structure (SMILES)
1 to 2.5 (≈ 1.13 to 2.83 µM) | 0.2 to 1 (≈ 0.226 to 1.13 µM) | 1 to 2.5 (≈ 1.13 to 2.83 µM) | CC[C@H]1OC(=O)[C@H](C)[C@@H](O[C@H]2C[C@@](C)(OC)[C@@H](O)[C@H](C)O2)[C@H](C)[C@@H](O[C@@H]2O[C@H](C)C[C@H](N(C)C)[C@H]2O)[C@](C)(O)C[C@@H](C)CN(CCCNCc2ccccn2)[C@H](C)[C@@H](O)[C@]1(C)O [Example 18, 9a-{3-[(Pyridin-2-yl-methyl)amino]propyl}-9-deoxo-9-dihydro-9a-aza-9a-homoerythromycin A]
1 to 2.5 | 1 to 2.5 | 1 to 2.5 | CC[C@H]1OC(=O)[C@H](C)[C@@H](O)[C@H](C)[C@@H](O[C@@H]2O[C@H](C)C[C@H](N(C)C)[C@H]2O)[C@](C)(O)C[C@@H](C)CN(CCCNC(=O)Cc2cccc3ccccc23)[C@H](C)[C@@H](O)[C@]1(C)O [Example 36, 9a-{3-[(Naphtalen-1-yl-acetyl)amino]propyl}-3-O-decladinosyl-9a-aza-9-deoxo-9-dihydro-9a-homoerythromycin A Formiate Salt]
< 0.1 | < 0.1 | < 0.1 | CCOc1ccc2ccccc2c1CNCCCN1C[C@H](C)C[C@@](C)(O)[C@H](O[C@@H]2O[C@H](C)C[C@H](N(C)C)[C@H]2O)[C@@H](C)[C@H](O[C@H]2C[C@@](C)(OC)[C@@H](O)[C@H](C)O2)[C@@H](C)C(=O)O[C@H](CC)[C@@](C)(O)[C@H](O)[C@H]1C [Example 7, 9a-[3-({[2-(Ethyloxy)-naphthalen-1-yl]methyl}amino)propyl]-9-deoxo-9-dihydro-9a-aza-9a-homoerythromycin A]
